Activity calls are given as the source filed them. The rule behind the calls is not given here.
Key:
A549 = test: Antiproliferative activity against human A549 cells assessed as inhibition of cell growth; assay type: functional, cell-based
HeLa = test: Antiproliferative activity against human HeLa cells assessed as inhibition of cell growth; assay type: functional, cell-based
MDA-MB-231 = test: Antiproliferative activity against human MDA-MB-231 cells assessed as inhibition of cell growth; assay type: functional, cell-based
[1] = Toxicity in orthotopic mouse inoculated with mouse 4T1 cells assessed as sparse and dull hair at 10 mg/kg, ip administered every day measured after 8 days; assay type: organism-based; settings: in vivo, 192 h, time 8 day
[2] = Toxicity in orthotopic mouse inoculated with mouse 4T1 cells assessed as hardened skin at 10 mg/kg, ip administered every day measured after 8 days; assay type: organism-based; settings: in vivo, 192 h, time 8 day
4T1 [3] = test: Antitumor activity against mouse 4T1 cells inoculated orthotopic mouse assessed as apoptotic cells in tumor tissue by TUNEL assay (reference value: 3.13%); assay type: functional
4T1 [4] = test: Antitumor activity against mouse 4T1 cells inoculated orthotopic mouse assessed as decrease in tumor weight at 10 mg/kg, ip administered every day measured after 14 days; assay type: functional, organism-based; settings: time 14.0 day
4T1 [5] = test: Antitumor activity against mouse 4T1 cells inoculated orthotopic mouse assessed as reduction in tumor volume at 10 mg/kg, ip administered every day measured after 14 days (reference value: 623 mm3); assay type: functional; settings: time 14 day
[6] = Toxicity in orthotopic mouse inoculated with mouse 4T1 cells assessed as liver cell swelling at 10 mg/kg, ip administered every day measured after 14 days by hematoxylin and eosin staining based assay; assay type: organism-based; settings: in vivo, 336 h, time 14 day
[7] = Toxicity in orthotopic mouse inoculated with mouse 4T1 cells assessed as body weight loss at 10 mg/kg, ip administered every day measured after 14 days; assay type: organism-based; settings: in vivo, 336 h, time 14 day
4T1 [8] = test: Antitumor activity against mouse 4T1 cells inoculated orthotopic mouse assessed as tumor growth inhibition ratio at 10 mg/kg, ip administered every day measured after 14 days; assay type: functional; set-up: scale not given: the % may be the effect or the level left; settings: time 14 day
4T1 [9] = test: Antitumor activity against mouse 4T1 cells inoculated orthotopic mouse assessed as change in gross appearance of tumor at 10 mg/kg, ip administered every day measured after 14 days; assay type: functional, organism-based; settings: time 14.0 day

Row | IC50 (A549) [nM] | IC50 (HeLa) [nM] | IC50 (MDA-MB-231) [nM] | Structure (SMILES) | Activity [1] | Activity [2] | Activity (4T1 [3]) [%] | Activity (4T1 [4]) | Activity (4T1 [5]) [mm3] | Activity [6] | Activity [7] [%] | Activity (4T1 [8]) [%] | Activity (4T1 [9])
1 | 330 | 710 | 390 | Cc1ccc(S(=O)(=O)N2CCOC23C=CC(=O)C=C3)cc1 | – | – | – | – | – | – | – | – | –
2 | – | – | – | COc1cccc2c1C(=O)c1c(O)c3c(c(O)c1C2=O)C[C@@](O)(C(=O)CO)C[C@@H]3O[C@H]1C[C@H](N)[C@H](O)[C@H](C)O1 [DOXORUBICIN] | Toxic | Toxic | 82.57 | Active | 265 | Toxic | 19 | 50 | Active

— ChEMBL document CHEMBL5143618, “Design, synthesis, and antitumor activity evaluation of novel acyl sulfonamide spirodienones” (Bioorg Med Chem, 2022)
